Measurements taken from patent EP0838474B1, “PEPTIDE THAT INHIBITS BLOOD TRIGLYCERIDE LEVEL RISE AND BLOOD TRIGLYCERIDE LEVEL RISE INHIBITOR CONTAINING SAID PEPTIDE AS ACTIVE INGREDIENT” (MG PHARMA INC., priority 1995, dated 1997).
Residues, ends and D or L forms follow the SMILES beside them. No end group written: not given here.

Test system: TG level in blood
Assay: Serum TG elevation inhibiting action at the time of in vivo lipid loading (olive oil)
Set-up: species or system albino mice
Settings: for Ratio of Increase in Blood TG Levels (%): blood collected after 3 hours; for ID^50: Dose (mg/mouse) exhibiting 50% inhibition: oral, with 250 mg olive oil, blood TG after 3 hours; for Specific Activity: relative to the proteolysate (= 1)
Procedure: Serum TG elevation inhibiting action at the time of in vivo lipid loading was examined on the three peptides of the invention inhibiting elevations of TG levels in blood (i.e., the peptide having the amino acid sequence of SEQ ID NO: 1 and the peptides Val-Thr-Leu and Val-Tyr-Pro synthesized by the method described in Example 4). Healthy albino mice (5-10 weeks old; body weight: about 20-30 g) were used in this experiment. To each mouse, 250 mg of olive oil and an aqueous solution of the above peptide were administered orally. Three hours thereafter, blood was collected under anesthesia with Nembutal. After separation of the blood, the TG level in blood was determined.

Compound	Ratio of Increase in Blood TG Levels (%) (dose 0.1 mg/mouse oral with 250 mg olive oil)	Ratio of Increase in Blood TG Levels (%) (dose 0.2 mg/mouse oral with 250 mg olive oil)	Ratio of Increase in Blood TG Levels (%) (dose 1.0 mg/mouse oral with 250 mg olive oil)	Ratio of Increase in Blood TG Levels (%) (dose 2.5 mg/mouse oral with 250 mg olive oil)	Ratio of Increase in Blood TG Levels (%) (dose 5.0 mg/mouse oral with 250 mg olive oil)	ID^50: Dose (mg/mouse) exhibiting 50% inhibition	Specific Activity	Ratio of Increase in Blood TG Levels (%) (dose 1x10^-3 mg/mouse oral with 250 mg olive oil)	Ratio of Increase in Blood TG Levels (%) (dose 1x10^-4 mg/mouse oral with 250 mg olive oil)	Ratio of Increase in Blood TG Levels (%) (dose 4x10^-4 mg/mouse oral with 250 mg olive oil)	Ratio of Increase in Blood TG Levels (%) (dose 4x10^-5 mg/mouse oral with 250 mg olive oil)
CC(C)C[C@H](NC(=O)[C@@H](NC(=O)[C@@H](N)C(C)C)[C@@H](C)O)C(=O)O [Val-Thr-Leu, H-Val-Thr-Leu-OH] (H-Val-Thr-Leu-OH)	30%	33%	73%	76%	79%	0.43 mg/mouse	65	–	–	–	–
LVVYPWT [SEQ ID NO: 1, Leu-Val-Val-Tyr-Pro-Trp-Thr]	–	–	–	–	–	5.6x10^-4 mg/mouse	50000	65%	33%	33%	14%
